Data on seven molecules can be found in ChEMBL document CHEMBL1799928, “New 2-thioether-substituted apomorphines as potent and selective dopamine D₂ receptor agonists” (Eur J Med Chem, 2011).

Assay [1] concerns the target T1, D(2) dopamine receptor (Rattus norvegicus, UniProt P61169). The assay can be described thus: Displacement of [3H]raclopride from rat D2 dopamine receptor expressed in CHOK1 cells after 90 mins by liquid scintillation counter scintillation counter. It counts as cell-based, CHO-K1. A general note: Displacement assays read how much labelled ligand stays bound in the presence of the test substance.

For assay [2], the target named is T1, D(2) dopamine receptor. The assay can be described thus: Agonist activity at rat D2 dopamine receptor expressed in CHOK1 cells assessed as [35S]GTPgammaS binding after 90 mins by liquid scintillation counter. Type of assay: functional, cell-based, CHO-K1.
In assay [3] the target is D(1A) dopamine receptor (Homo sapiens, UniProt P21728). The assay can be described thus: Displacement of [3H]SCH23390 from human D1 dopamine receptor expressed in Ltk fibroblast cells after 60 mins by liquid scintillation counter. It counts as cell-based.
Chain of D(1A) dopamine receptor (P21728 whole entry): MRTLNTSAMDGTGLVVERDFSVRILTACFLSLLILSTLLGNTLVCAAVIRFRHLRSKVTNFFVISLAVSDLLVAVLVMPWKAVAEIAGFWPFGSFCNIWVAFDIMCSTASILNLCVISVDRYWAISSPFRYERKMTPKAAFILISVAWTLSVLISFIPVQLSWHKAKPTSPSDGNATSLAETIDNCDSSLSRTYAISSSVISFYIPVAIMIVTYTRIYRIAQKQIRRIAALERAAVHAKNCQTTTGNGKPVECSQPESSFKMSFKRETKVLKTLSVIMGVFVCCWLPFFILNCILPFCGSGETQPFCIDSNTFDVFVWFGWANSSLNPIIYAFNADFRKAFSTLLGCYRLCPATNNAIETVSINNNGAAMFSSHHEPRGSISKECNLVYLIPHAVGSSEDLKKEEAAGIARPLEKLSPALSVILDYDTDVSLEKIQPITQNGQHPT
The nature of assay [4]: Selectivity ratio of Ki for rat D2 dopamine receptor to Ki for human D1 dopamine receptor.

In general, Ki refers to the dissociation constant of the complex between target and ligand, obtained from inhibition or displacement. As a reminder, the EC50 is the midpoint of the concentration-response curve.

T1 sequence (P61169 whole entry): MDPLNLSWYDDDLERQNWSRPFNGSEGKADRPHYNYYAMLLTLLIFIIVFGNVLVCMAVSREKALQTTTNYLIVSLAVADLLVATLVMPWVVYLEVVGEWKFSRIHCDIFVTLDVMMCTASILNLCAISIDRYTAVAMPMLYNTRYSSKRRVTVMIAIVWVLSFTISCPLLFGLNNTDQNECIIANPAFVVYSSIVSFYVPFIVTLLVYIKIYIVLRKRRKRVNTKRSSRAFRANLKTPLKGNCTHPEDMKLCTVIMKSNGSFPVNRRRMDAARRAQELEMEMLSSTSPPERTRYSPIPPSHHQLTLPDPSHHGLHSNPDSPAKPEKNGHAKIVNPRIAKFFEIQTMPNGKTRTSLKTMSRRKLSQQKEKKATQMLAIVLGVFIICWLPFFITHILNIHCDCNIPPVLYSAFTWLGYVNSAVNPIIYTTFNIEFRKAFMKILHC

In the case of `CN1CCc2cc(SCCC(=O)O)cc3c2[C@H]1Cc1ccc(O)c(O)c1-3`, the values for the Ki in assay [1] and in assay [3] were 400 nM and 150 nM, respectively. For the same molecule, the EC50 in assay [2] amounted to 148 nM. Also, the Ratio Ki in assay [4] was found to be 0.4.
Consider `CN1CCc2c3c(cc4c2[C@H]1Cc1ccc(O)c(O)c1-4)SCCC3=O`, for which the results for the Ki in assay [1] and in assay [3] were 415 nM and 140 nM, respectively. Further, in assay [2], the EC50 was found to be 383 nM. Besides, in assay [4], the Ratio Ki came to 0.3.
In turn, `CN1CCc2cc(SC[C@@H](N)C(=O)O)cc3c2[C@H]1Cc1ccc(O)c(O)c1-3` returned a Ki in assay [3] of 141 nM.
With `CN1CCc2cc(SCCN)cc3c2[C@H]1Cc1ccc(O)c(O)c1-3`, the Ki in assay [1] came out at 9.6 nM; in assay [3] it was 1300 nM. The EC50 in assay [2] was found to be 16 nM. Besides, the Ratio Ki in assay [4] was found to be 135.
As for `COC(=O)[C@@H](N)CSc1cc2c3c(c1)-c1c(ccc(O)c1O)C[C@H]3N(C)CC2`, the figures for the inhibition constant Ki in assay [1] and in assay [3] were 10 nM and 380 nM, respectively. Moreover, the 50% effective concentration (EC50) in assay [2] was 24 nM. In addition, the Ratio Ki in assay [4] worked out at 38.
`CN1CCc2cc(SC[C@H](N)C(=O)O)cc3c2[C@H]1Cc1ccc(O)c(O)c1-3` gave a Ki in assay [3] of 4200 nM.
With `CN1CCc2cc(Sc3ccccc3)cc3c2[C@H]1Cc1ccc(O)c(O)c1-3`, the Ki in assay [1] is 580 nM; in assay [3], 2200 nM. Also, in assay [2], the EC50 is 820 nM. Further, the Ratio Ki in assay [4] amounted to 47.
